{"source": "patent US5891917A", "about": "“Certain acrylonitrile-sulfonamide derivatives” (Sugen, Inc., priority 1997, dated 1999)", "note": "pIC50: −log10 of the molar value."}
{"system": "chimeric receptor containing the EGFR extracellular domain and the HER2 intracellular kinase domain", "experiment": "EGFR-HER2 chimeric receptor whole cell kinase ELISA (3T3)", "format": "cell-based", "details": "NIH3T3 cells with EGFR/HER2 chimera, 100 nM EGF", "from_the_text": "The following examples illustrate the ability of the exemplary compounds to inhibit receptor tyrosine kinases, such as HER2 and/or EGFR. The following target cells were used for cellular kinase assays: NIH3T3 clone C7 (Honegger et al., supra) engineered to over-express human EGF receptor; NIH3T3 cells engineered to over-express a chimeric receptor containing the EGFR extracellular domain and the HER2 intracellular kinase domain; the human mammary carcinoma line BT474 (ATCC HTB2) expressing HER2; and the human glioblastoma line U1242 that expresses PDGFR-beta. Growth assays were carried out using human mammary epithelial SKBR3 (ATCC HTB30) cells (SKBR3 cells over-express HER2), SKOV3 (ATCC HTB77) human ovarian cancer cell line (SKOV3 cells also over-express HER2), A431 cells (A431 cells over-express EGFR) MCF7 human breast carcinoma cells, MCF7 cells overexpressing the HER2 kinase (MCF7-HER2), NIH3T3 cells, and NIH3T3 cells overexpressing the HER2 kinase (3T3-HER2.\nEGFR-HER2 Chimeric Recetor\nHER2 kinase activity (EGFR-3T3) in whole cells was measured as described below:\nThe materials and regeants are identical to these used in example 1, the EGFR whole cell kinase assay.\nA. Coat ELISA plates (Corning, 96 well, Cat. #25805-96) with 05-101 antibody at 0.5 μg per well in PBS, 100 μl final volume/well, and store overnight at 4° C. Coated plates are good for up to 10 days when stored at 4° C.\nB. On day of use, remove coating buffer and replace with 100 μl blocking buffer (5% Carnation Instant Non-Fat Dry Milk in PBS). Incubate the plate, shaking, at room temperature (about 23° C. to 25° C.) for 30 minutes. Just prior to use, remove blocking buffer and wash plate 4 times with TBST buffer.\nA. An NIH3T3 cell line overexpressing a chimeric receptor containing the EGFR extracellular domain and extracellular HER2 kinase domain can be used for this assay.\nB. Choose dishes having 80-90% confluence for the experiment. Trypsinize cells and stop reaction by adding 10% fetal bovine serum. Suspend cells in DMEM medium (10% CS DMEM medium) and centrifuge once at 1500 rpm, at room temperature for 5 minutes.\nC. Resuspend cells in seeding medium (DMEM, 0.5% bovine serum), and count the cells using trypan blue. Viability above 90% is acceptable. Seed cells in DMEM medium (0.5% bovine serum) at a density of 10,000 cells per well, 100 μl per well, in a 96 well microtiter plate. Incubate seeded cells in 5% CO2 at 37° C. for about 40 hours.\nA. Check seeded cells for contamination using an inverted microscope. Dilute drug stock (10 mg/ml in DMSO) 1:10 in DMEM medium, then transfer 5 l to a […] well for a final drug dilution of 1:200 and a final DMSO concentration of 1%. Control wells receive DMSO alone. Incubate in 5% CO2 at 37° C. for two hours.\nB. Prepare EGF ligand: dilute stock EGF in DMEM so that upon transfer of 10 μl dilute EGF (1:12 dilution), 100 nM final concentration is attained.\nD. After 120 minutes incubation with drug, add prepared […] ligand to cells, 10 μl per well, to a final concentration of 100 nM. Control wells receive DMEM alone. Incubate, shaking, at room temperature, for 5 minutes.\nE. Remove drug, EGF, and DMEM. Wash cells twice with PBS. Transfer HNTG* to cells, 100 μl per well. Place on ice for 5 minutes. Meanwhile, remove blocking buffer from other ELISA plate and wash with TBST as described above.\nF. With a pipette tip securely fitted to a micropipettor, scrape cells from plate and homogenize cell material by repeatedly aspirating and dispensing the HNTG* lysis buffer. Transfer lysate to a coated, blocked, and washed ELISA plate. Incubate shaking at room temperature for one hour.\nG. Remove lysate and wash 4 times with TBST. Transfer freshly diluted anti-Ptyr antibody to ELISA plate at 100 μl per well. Incubate shaking at room temperature for 30 minutes in the presence of the anti-Ptyr antiserum (1:3000 dilution in TBST).\nH. Remove the anti-Ptyr antibody and wash 4 times with TBST. […]"}
{"molecule": "CC(C)c1cc(/C=C(\\C#N)S(=O)(=O)c2ccccc2)cc(C(C)C)c1O", "note": "[Compound 731]", "pIC50": 4.76}
{"molecule": "CC(C)c1cc(/C=C(\\C#N)S(=O)(=O)NCc2ccccc2)cc(C(C)C)c1O", "note": "[Compound 732]", "pIC50": 4.68}
{"molecule": "N#C/C(=C\\c1ccc(O)cc1Cl)S(=O)(=O)NCc1ccccc1", "note": "[Compound 733]", "pIC50": 4.08}
{"molecule": "N#C/C(=C\\c1ccc(O)cc1Cl)S(=O)(=O)NCCCc1ccccc1", "note": "[Compound 734]", "pIC50": 4.66}
{"molecule": "CC(C)(C)c1cc(/C=C(\\C#N)S(=O)(=O)Cc2cccc(C(F)(F)F)c2)cc(C(C)(C)C)c1O", "note": "[Compound 735]", "pIC50": 4.24}
{"molecule": "CC(C)c1cc(/C=C(\\C#N)S(=O)(=O)Cc2cccc(C(F)(F)F)c2)cc(C(C)C)c1O", "note": "[Compound 736]", "pIC50": 4.64}
{"molecule": "CC(C)c1cc(/C=C(\\C#N)S(=O)(=O)c2cccs2)cc(C(C)C)c1O", "note": "[Compound 737]", "pIC50": 4.49}
{"molecule": "CC(C)c1cc(/C=C(\\C#N)S(=O)(=O)c2ccsc2)cc(C(C)C)c1O", "note": "[Compound 738]", "pIC50": 4.44}
{"molecule": "Cc1cc(/C=C(\\C#N)S(=O)(=O)Cc2cccc(C(F)(F)F)c2)cc(C)c1O", "note": "[Compound 739]", "pIC50": "< 4.00"}
{"molecule": "CC(C)(C)c1cc(/C=C(\\C#N)S(=O)(=O)c2ccc(F)cc2)cc(C(C)(C)C)c1O", "note": "[Compound 740]", "pIC50": "< 4.00"}
{"molecule": "CC(C)c1cc(/C=C(\\C#N)S(=O)(=O)c2ccc(F)cc2)cc(C(C)C)c1O", "note": "[Compound 741, (E)-3-(3,5-Diisopropyl-4-hydroxyphenyl)-2-(4-fluorophenylsulfonyl)acrylonitrile]", "pIC50": 4.86}
{"molecule": "CC(C)(C)c1cc(/C=C(\\C#N)S(=O)(=O)c2cccs2)cc(C(C)(C)C)c1O", "note": "[Compound 742]", "pIC50": 4.56}
{"molecule": "CC(C)(C)c1cc(/C=C(\\C#N)S(=O)(=O)c2ccsc2)cc(C(C)(C)C)c1O", "note": "[Compound 746]", "pIC50": 5.09}
